Experiment: xn = mol fraction of the nth substance listed
Conditions: 101 kPa

CN(CCO)CCO + CC(=O)[O-].CC[n+]1ccn(C)c1
x2 = 0
Conditions	electrical conductivity [S/m]	viscosity [mPa·s]
288.15 K	0.0002	137.6
293.15 K	0.0003	101.2
298.15 K	0.0004	74.8
303.15 K	0.0005	57.2
308.15 K	0.0007	43
313.15 K	0.0009	34.1
318.15 K	0.0011	26.1
323.15 K	0.0014	21.6
333.15 K	0.0024	14.19
348.15 K	0.0046	8.13
353.15 K	0.0056	7.09

CC(=O)[O-].CC[n+]1ccn(C)c1 + CN(CCO)CCO
Conditions	electrical conductivity [S/m]	viscosity [mPa·s]
288.15 K, x1 = 0.1002	0.01	144.1
288.15 K, x1 = 0.2997	0.048	155.8
288.15 K, x1 = 0.4001	0.059	163
288.15 K, x1 = 0.5998	0.075	193
288.15 K, x1 = 0.7003	0.087	203
288.15 K, x1 = 0.7998	0.103	217
288.15 K, x1 = 0.8999	0.124	236
288.15 K, x1 = 1	0.151	288
293.15 K, x1 = 0.1002	0.014	107.2
293.15 K, x1 = 0.2002	0.044	112.8
293.15 K, x1 = 0.2997	0.059	118.3
293.15 K, x1 = 0.4995	0.085	128.7
293.15 K, x1 = 0.5998	0.099	140.6
293.15 K, x1 = 0.7003	0.116	147.3
293.15 K, x1 = 0.7998	0.138	154.8
293.15 K, x1 = 0.8999	0.169	170
293.15 K, x1 = 1	0.201	197
298.15 K, x1 = 0.1002	0.019	80.3
298.15 K, x1 = 0.2002	0.054	85.1
298.15 K, x1 = 0.2997	0.073	88.7
298.15 K, x1 = 0.4001	0.089	93.2
298.15 K, x1 = 0.5998	0.13	106.5
298.15 K, x1 = 0.7003	0.152	110.8
298.15 K, x1 = 0.7998	0.184	114.1
298.15 K, x1 = 0.8999	0.227	127.2
298.15 K, x1 = 1	0.278	140
303.15 K, x1 = 0.1002	0.025	60.8
303.15 K, x1 = 0.2997	0.091	68.6
303.15 K, x1 = 0.4001	0.115	71.9
303.15 K, x1 = 0.4995	0.148	75.7
303.15 K, x1 = 0.7003	0.204	83.8
303.15 K, x1 = 0.7998	0.242	86.6
303.15 K, x1 = 0.8999	0.295	95.8
308.15 K, x1 = 0.1002	0.032	47.2
308.15 K, x1 = 0.2002	0.079	50.7
308.15 K, x1 = 0.2997	0.11	53.3
308.15 K, x1 = 0.4001	0.143	56.1
308.15 K, x1 = 0.4995	0.185	59.9
308.15 K, x1 = 0.5998	0.217	64.3
308.15 K, x1 = 0.7003	0.271	65.4
308.15 K, x1 = 0.7998	0.315	66.8
308.15 K, x1 = 1	0.461	78.3
313.15 K, x1 = 0.1002	0.04	37.2
313.15 K, x1 = 0.2002	0.093	40.3
313.15 K, x1 = 0.2997	0.134	42.9
313.15 K, x1 = 0.4001	0.175	45
313.15 K, x1 = 0.5998	0.273	51.7
313.15 K, x1 = 0.8999	0.486	58.1
313.15 K, x1 = 1	0.585	60.4
318.15 K, x1 = 0.2002	0.112	32
318.15 K, x1 = 0.2997	0.163	34.3
318.15 K, x1 = 0.4001	0.215	36.4
318.15 K, x1 = 0.4995	0.28	39.7
318.15 K, x1 = 0.5998	0.342	41.3
318.15 K, x1 = 0.7998	0.505	43.7
323.15 K, x1 = 0.2002	0.132	26.1
323.15 K, x1 = 0.2997	0.194	27.3
323.15 K, x1 = 0.4001	0.259	29.8
323.15 K, x1 = 0.4995	0.344	32.7
323.15 K, x1 = 0.5998	0.423	33.9
323.15 K, x1 = 0.7003	0.519	35.1
323.15 K, x1 = 0.7998	0.624	35.9
323.15 K, x1 = 0.8999	0.736	38.3
328.15 K, x1 = 0.2002	0.157	21.4
328.15 K, x1 = 0.2997	0.23	22.8
328.15 K, x1 = 0.4001	0.311	25
328.15 K, x1 = 0.7003	0.628	28.7
328.15 K, x1 = 0.7998	0.763	29.4
328.15 K, x1 = 0.8999	0.886	30.8
328.15 K, x1 = 1	1.06	31.2
333.15 K, x1 = 0.1002	0.09	15.76
333.15 K, x1 = 0.2002	0.184	17.9
333.15 K, x1 = 0.2997	0.273	19.4
333.15 K, x1 = 0.4001	0.371	20.6
333.15 K, x1 = 0.4995	0.495	22
333.15 K, x1 = 0.5998	0.628	23
333.15 K, x1 = 0.7003	0.755	23.8
333.15 K, x1 = 0.7998	0.909	24.5
338.15 K, x1 = 0.1002	0.108	13
338.15 K, x1 = 0.2002	0.215	14.46
338.15 K, x1 = 0.2997	0.322	16.9
338.15 K, x1 = 0.4001	0.437	17.3
338.15 K, x1 = 0.4995	0.583	18.7
338.15 K, x1 = 0.5998	0.742	19.3
338.15 K, x1 = 0.7003	0.896	19.9
338.15 K, x1 = 0.7998	1.08	20.5
338.15 K, x1 = 0.8999	1.25	21.1
338.15 K, x1 = 1	1.47	21.8
343.15 K, x1 = 0.1002	0.126	10.85
343.15 K, x1 = 0.2002	0.249	12.19
343.15 K, x1 = 0.2997	0.377	14.5
343.15 K, x1 = 0.4995	0.684	16.1
343.15 K, x1 = 0.5998	0.882	16.6
343.15 K, x1 = 0.7003	1.05	17.3
343.15 K, x1 = 0.7998	1.26	17.7
343.15 K, x1 = 0.8999	1.46	18.2
343.15 K, x1 = 1	1.71	18.8
348.15 K, x1 = 0.1002	0.148	9.17
348.15 K, x1 = 0.2002	0.287	10.36
348.15 K, x1 = 0.2997	0.441	12.49
348.15 K, x1 = 0.4001	0.605	12.74
348.15 K, x1 = 0.5998	1.04	14.22
348.15 K, x1 = 0.7003	1.22	14.67
348.15 K, x1 = 0.7998	1.46	15.22
348.15 K, x1 = 0.8999	1.68	15.69
348.15 K, x1 = 1	1.96	16.01
353.15 K, x1 = 0.1002	0.172	8.38
353.15 K, x1 = 0.2997	0.511	10.86
353.15 K, x1 = 0.4001	0.7	11.03
353.15 K, x1 = 0.4995	0.919	12.24
353.15 K, x1 = 0.7003	1.42	13.06
353.15 K, x1 = 0.8999	1.93	13.8
353.15 K, x1 = 1	2.22	14.07

Reference: a compilation of properties of binary mixtures (doi:10.1016/j.molliq.2017.03.036)
